The values that follow are results of earlier work, collected in PubChem BioAssay AID1259409 (Chemical Carcinogenesis Research Information System (CCRIS), 2018).

Several values for one entry are separate records, joined by “and”; a condition that tells them apart may be missing. Equal entries are not always repeated.

The subject of the series is rodent chemically induced tumor inhibition, incidence and multiplicity. In words: CCRIS tumor inhibitor studies.

`N#Cc1ccc(C(c2ccc(C#N)cc2)n2cncn2)cc1`: the “tumour outcome (control, treated, inhibition, significance)” value is on record as 7/60 (12%), 0/60 (0%), 100%, not calculated (Carcinogen: NONE, Dose [Inhibitor]: 0, 0.1 MG/KG BW/D FOR 104 WK (STUDY DURATION: 104 WK), Route [Inhibitor]: NOT SPECIFIED, Species: RAT, Strain/Sex: SPRAGUE-DAWLEY/FEMALE, Target Tissue: Type of Lesion: REPRODUCTIVE TRACT (DISTAL): BENIGN GRANULAR CELL TUMOR, Promoter: NONE); 7/60 (12%), 0/60 (0%), 100%, not calculated (Carcinogen: NONE, Dose [Inhibitor]: 0, 1 MG/KG BW/D FOR 104 WK (STUDY DURATION: 104 WK), Route [Inhibitor]: NOT SPECIFIED, Species: RAT, Strain/Sex: SPRAGUE-DAWLEY/FEMALE, Target Tissue: Type of Lesion: REPRODUCTIVE TRACT (DISTAL): BENIGN GRANULAR CELL TUMOR, Promoter: NONE); 7/60 (12%), 0/60 (0%), 100%, not calculated (Carcinogen: NONE, Dose [Inhibitor]: 0, 10 MG/KG BW/D FOR 104 WK (STUDY DURATION: 104 WK), Route [Inhibitor]: NOT SPECIFIED, Species: RAT, Strain/Sex: SPRAGUE-DAWLEY/FEMALE, Target Tissue: Type of Lesion: REPRODUCTIVE TRACT (DISTAL): BENIGN GRANULAR CELL TUMOR, Promoter: NONE).

Consider `C[N+](C)(C)CC(=O)O`, for which, where the note is “Carcinogen: ETHIONINE, 13073-35-3, Dose [Inhibitor]: 5.2 MMOL/100 G DIET DAILY FOR 8 MO ADMINISTERED SIMULTANEOUSLY WITH CARCINOGEN FOLLOWED BY 4 MO ON BASAL DIET (STUDY DUR, Route [Inhibitor]: ORAL, Species: RAT, Strain/Sex: WISTAR/MALE, Target Tissue: Type of Lesion: LIVER: CARCINOMA, Dose [Carcinogen]: 0.25% OF DIET DAILY FOR 8 MO, Promoter: NONE USED”, the “tumour outcome (control, treated, inhibition, significance)” value was 8/8 (100%), 1/10 (10%), 90%, not calculated.

For `O=C1CCCO1`, the “tumour outcome (control, treated, inhibition, significance)” value (Carcinogen: N-METHYL-N'-NITRO-N-NITROSOGUANIDINE, 70-25-7, Dose [Inhibitor]: 0, 200 MG/KG/BW SUSPENSION IN OLIVE OIL 1/2 D BEGINNING POST CARCINOGEN TREATMENT AND CONTINUING FOR DURATION OF STUDY (, Route [Inhibitor]: SUBCUTANEOUS, Species: RAT, Strain/Sex: WISTAR/MALE, Target Tissue: Type of Lesion: STOMACH: ADENOCARCINOMA, Dose [Carcinogen]: 50 UG/ML IN DRINKING WATER FOR 25 WK, Promoter: NONE USED) was 16/20 (80%), 13/20 (65%), 19%, not significant.

For the compound `C=C1/C(=C\C=C2/CCC[C@]3(C)[C@@H]([C@H](C)CCCC(C)(C)O)CC[C@@H]23)C[C@@H](O)C[C@@H]1O`, the “tumour outcome (control, treated, inhibition, significance)” value (Carcinogen: 7,12-DIMETHYLBENZ[A]ANTHRACENE, 57-97-6, Dose [Inhibitor]: 0.125 NMOL 2/WK STARTING 1 WK AFTER CARCINOGEN TREATMENT AND CONTINUING FOR 9 WK (STUDY DURATION: 10 WK), Route [Inhibitor]: DERMAL, Species: MOUSE, Strain/Sex: CD-1/FEMALE, Target Tissue: Type of Lesion: SKIN: PAPILLOMA, Dose [Carcinogen]: 20 NMOL ONCE, Promoter: 12-O-TETRADECANOYLPHORBOL-13-ACETATE, 16561-29-8) is 77%, 37%, 52%, p<0.05; the “tumour outcome (control, treated, inhibition, significance)” value (Carcinogen: 7,12-DIMETHYLBENZ[A]ANTHRACENE, 57-97-6, Dose [Inhibitor]: 0.125 NMOL 2/WK STARTING 1 WK AFTER CARCINOGEN TREATMENT AND CONTINUING FOR 12 WK (STUDY DURATION: 13 WK), Route [Inhibitor]: DERMAL, Species: MOUSE, Strain/Sex: CD-1/FEMALE, Target Tissue: Type of Lesion: SKIN: PAPILLOMA, Dose [Carcinogen]: 20 NMOL ONCE, Promoter: 12-O-TETRADECANOYLPHORBOL-13-ACETATE, 16561-29-8) was 96%, 70%, 27%, p<0.05; the “tumour outcome (control, treated, inhibition, significance)” value (Carcinogen: 7,12-DIMETHYLBENZ[A]ANTHRACENE, 57-97-6, Dose [Inhibitor]: 0.25 NMOL 2/WK STARTING 1 WK AFTER CARCINOGEN TREATMENT AND CONTINUING FOR 9 WK (STUDY DURATION: 10 WK), Route [Inhibitor]: DERMAL, Species: MOUSE, Strain/Sex: CD-1/FEMALE, Target Tissue: Type of Lesion: SKIN: PAPILLOMA, Dose [Carcinogen]: 20 NMOL ONCE, Promoter: 12-O-TETRADECANOYLPHORBOL-13-ACETATE, 16561-29-8) was 77%, 33%, 57%, p<0.05; the “tumour outcome (control, treated, inhibition, significance)” value (Carcinogen: 7,12-DIMETHYLBENZ[A]ANTHRACENE, 57-97-6, Dose [Inhibitor]: 0.25 NMOL 2/WK STARTING 1 WK AFTER CARCINOGEN TREATMENT AND CONTINUING FOR 12 WK (STUDY DURATION: 13 WK), Route [Inhibitor]: DERMAL, Species: MOUSE, Strain/Sex: CD-1/FEMALE, Target Tissue: Type of Lesion: SKIN: PAPILLOMA, Dose [Carcinogen]: 20 NMOL ONCE, Promoter: 12-O-TETRADECANOYLPHORBOL-13-ACETATE, 16561-29-8) was 96%, 70%, 27%, p<0.05; the “tumour outcome (control, treated, inhibition, significance)” value (Carcinogen: 7,12-DIMETHYLBENZ[A]ANTHRACENE, 57-97-6, Dose [Inhibitor]: 0.5 NMOL 2/WK STARTING 1 WK AFTER CARCINOGEN TREATMENT AND CONTINUING FOR 12 WK (STUDY DURATION: 13 WK), Route [Inhibitor]: DERMAL, Species: MOUSE, Strain/Sex: CD-1/FEMALE, Target Tissue: Type of Lesion: SKIN: PAPILLOMA, Dose [Carcinogen]: 20 NMOL ONCE, Promoter: 12-O-TETRADECANOYLPHORBOL-13-ACETATE, 16561-29-8) was 83%, 43%, 48%, p<0.05 and 96%, 59%, 39%, p<0.05; the “tumour outcome (control, treated, inhibition, significance)” value (Carcinogen: 7,12-DIMETHYLBENZ[A]ANTHRACENE, 57-97-6, Dose [Inhibitor]: 0.5 NMOL 2/WK STARTING 1 WK AFTER CARCINOGEN TREATMENT AND CONTINUING FOR 15 WK (STUDY DURATION: 16 WK), Route [Inhibitor]: DERMAL, Species: MOUSE, Strain/Sex: CD-1/FEMALE, Target Tissue: Type of Lesion: SKIN: PAPILLOMA, Dose [Carcinogen]: 20 NMOL ONCE, Promoter: 12-O-TETRADECANOYLPHORBOL-13-ACETATE, 16561-29-8) is 88%, 59%, 33%, p<0.05 and 92%, 77%, 16%, not significant. Further, the “tumour outcome (control, treated, inhibition, significance)” value was 47%, 4%, 91%, p<0.05 (Carcinogen: 7,12-DIMETHYLBENZ[A]ANTHRACENE, 57-97-6, Dose [Inhibitor]: 2 NMOL 2/WK STARTING 1 WK AFTER CARCINOGEN TREATMENT AND CONTINUING FOR 9 WK (STUDY DURATION: 10 WK), Route [Inhibitor]: DERMAL, Species: MOUSE, Strain/Sex: CD-1/FEMALE, Target Tissue: Type of Lesion: SKIN: PAPILLOMA, Dose [Carcinogen]: 20 NMOL ONCE, Promoter: 12-O-TETRADECANOYLPHORBOL-13-ACETATE, 16561-29-8); 83%, 12%, 86%, p<0.05 (Carcinogen: 7,12-DIMETHYLBENZ[A]ANTHRACENE, 57-97-6, Dose [Inhibitor]: 2 NMOL 2/WK STARTING 1 WK AFTER CARCINOGEN TREATMENT AND CONTINUING FOR 12 WK (STUDY DURATION: 13 WK), Route [Inhibitor]: DERMAL, Species: MOUSE, Strain/Sex: CD-1/FEMALE, Target Tissue: Type of Lesion: SKIN: PAPILLOMA, Dose [Carcinogen]: 20 NMOL ONCE, Promoter: 12-O-TETRADECANOYLPHORBOL-13-ACETATE, 16561-29-8); 88%, 18%, 80%, p<0.05 (Carcinogen: 7,12-DIMETHYLBENZ[A]ANTHRACENE, 57-97-6, Dose [Inhibitor]: 2 NMOL 2/WK STARTING 1 WK AFTER CARCINOGEN TREATMENT AND CONTINUING FOR 15 WK (STUDY DURATION: 16 WK), Route [Inhibitor]: DERMAL, Species: MOUSE, Strain/Sex: CD-1/FEMALE, Target Tissue: Type of Lesion: SKIN: PAPILLOMA, Dose [Carcinogen]: 20 NMOL ONCE, Promoter: 12-O-TETRADECANOYLPHORBOL-13-ACETATE, 16561-29-8); 6/9 (67%), 5/9 (56%), 16%, not significant (Carcinogen: N-METHYL-N-NITROSOUREA [684-93-5], Dose [Inhibitor]: 0, 0.8 ML OF 10 µM ETHANOL SOLUTION ADMINISTERED IN NORMAL SALINE VIA CATHETER 1X/WK FOR 7 WK BEGINNING 3 WK POST CARCIN, Route [Inhibitor]: INTRAVESICAL, Species: RAT, Strain/Sex: F344/FEMALE, Target Tissue: Type of Lesion: URINARY BLADDER: TUMOR, Dose [Carcinogen]: ONCE/2 WK FOR 6 WK (STUDY DURATION: 31 WK; DOSE NOT REPORTED), Promoter: NONE).
